Patent US10342758B2, “Cationic lipid” (Kyowa Hakko Kirin Co., Ltd., priority 2012, dated 2019)

Test: Average particle diameter of preparation (Zetasizer Nano ZS)
Type: physicochemical
Conditions: preparation with f7 siRNA
Description: The average particle diameter of each preparation (composition) was measured using a particle diameter measurement device (Zetasizer Nano ZS, manufactured by Malvern, hereafter the same).
The average particle diameter of each preparation (composition) was measured using a particle diameter measurement device.
Each sample was weighed and suspended in an aqueous solution containing hydrochloric acid and ethanol so that the ratio of Compound A-1/PEG-DMPE Na (manufactured by NOF Corporation) was 57.3/5.52 mmol/L, and then, the resulting mixture was repeatedly subjected to stirring using a vortex stirring mixer and heating, whereby a uniform suspension was obtained. This suspension was passed through a 0.2-μm polycarbonate membrane filter and thereafter passed through a 0.05-μm polycarbonate membrane filter at room temperature, whereby a dispersion liquid of particles (liposome) of Compound A-1/PEG-DMPE Na was obtained. The average particle diameter of the obtained liposome was measured using a particle diameter measuring apparatus to confirm that the average particle diameter was within the range from 30 nm to 100 nm. In the obtained dispersion liquid of liposome, the f7 siRNA solution was mixed at a ratio of the dispersion liquid of liposome to the fl siRNA solution of 3:1, and then, distilled water that was three times the amount was added thereto and mixed therewith, whereby a dispersion liquid of Compound A-1/PEG-DMPE Na/f7 siRNA complex was prepared.
The average particle diameter of the preparation (composition) was measured using a particle diameter measurement device.

[1] = compound/PEG-DMPE Na/DSPC/cholesterol, Examples 50, 51 / Comparative Example 2
[2] = liposome/siRNA complex encapsulated by lipid membrane, Examples 52, 53 / Comparative Example 3
[3] = compound/PEG-DMPE Na/DSPC/cholesterol=7.030/0.755/2.038/4.892 mmol/L, Example 54

| Structure (SMILES) | Particle diameter of Preparation obtained [1] [nm] | Particle diameter of Preparation obtained [2] [nm] | Particle diameter of Preparation obtained [3] [nm] |
| --- | --- | --- | --- |
| CCCCC/C=C\C/C=C\CCCCCCCCN(CCCCCCCC/C=C\C/C=C\CCCCC)C(=O)OCC1CCCN1C (stereo not shown) [Compound A-21, (1-Methylpyrrolidin-2-yl)methyl di((9Z,12Z)-octadeca-9,12-dien-1-yl)carbamate] | 141.0 | 104.8 |  |
| CCCCC/C=C\C/C=C\CCCCCCCCN(CCOCCCCCCCC/C=C\CCCCCCCC)C(=O)OCCCN(C)C [Compound A-35, 3-(Dimethylamino)propyl (2-((Z)-octadec-9-enyloxy)ethyl)((9Z,12Z)-octadeca-9,12-dienyl)carbamate] | 137.8 | 115.4 |  |
| CCCCC/C=C\C/C=C\CCCCCCCCN(CCCCO)CCCCCCCC/C=C\C/C=C\CCCCC [Compound C-5, 4-(Di((9Z,12Z)-octadeca-9,12-dienyl)amino)butan-1-ol] | 134.9 | 96.4 |  |
| CCCCC/C=C\C/C=C\CCCCCCCCN(CCCCCCCC/C=C\C/C=C\CCCCC)C(=O)OCCN(C)C [Compound A-5, 2-(Dimethylamino)ethyl di((9Z,12Z)-octadeca-9,12-dienyl)carbamate] | 139.2 | 93.4 |  |
| CCCCC/C=C\C/C=C\CCCCCCCCOCC(CN(C)C(=O)OCCCN(C)C)OCCCCCCCC/C=C\C/C=C\CCCCC (stereo not shown) [Compound XI-9, 3-(Dimethylamino)propyl 2,3-bis((9Z,12Z)-octadeca-9,12-dienyloxy)propyl(methyl)carbamate, reference compound] |  | 116.2 |  |
| CCCCC/C=C\C/C=C\CCCCCCCCN(CCCCCCCC/C=C\C/C=C\CCCCC)C(=O)OCC1CCCN(C)C1 (stereo not shown) [Compound A-15] | 124.0 | 98.4 |  |
| CCCCC/C=C\C/C=C\CCCCCCCCOCCN(CCOCCCCCCCC/C=C\C/C=C\CCCCC)C(=O)OCCCN(C)C [Compound XI-5, 3-(Dimethylamino)propyl bis(2-((9Z,12Z)-octadeca-9,12-dienyloxy)ethyl)carbamate, reference compound] | 114.1 |  |  |
| CCCCC/C=C\C/C=C\CCCCCCCCOCCN(CCCCCCCC/C=C\C/C=C\CCCCC)C(=O)OCCCN1CCCCC1 [Compound A-29, 3-(Piperidin-1-yl)propyl ((9Z,12Z)-octadeca-9,12-dienyl)(2-((9Z,12Z)-octadeca-9,12-dienyloxy)ethyl)carbamate] | 130.6 | 103.4 |  |
| CCCCC/C=C\C/C=C\CCCCCCCCOCCN(CCCCCCCC/C=C\C/C=C\CCCCC)C(=O)OCCCN(C)C [Compound A-12, 3-(Dimethylamino)propyl ((9Z,12Z)-octadeca-9,12-dienyl)(2-((9Z,12Z)-octadeca-9,12-dienyloxy)ethyl)carbamate] | 133.0 | 111.5 |  |
| CCCCC/C=C\C/C=C\CCCCCCCCOCCN(CCCCCCCC/C=C\C/C=C\CCCCC)C(=O)OCC1CCCN(C)C1 (stereo not shown) [Compound A-32, (1-Methylpiperidin-3-yl)methyl ((9Z,12Z)-octadeca-9,12-dienyl)(2-((Z,12Z)-octadeca-9,12-dienyloxy)ethyl)carbamate] | 124.6 | 101.4 |  |
| CCCCC/C=C\C/C=C\CCCCCCCCN(CCCO)CCCCCCCC/C=C\C/C=C\CCCCC [Compound C-1, 3-(Di((9Z,12Z)-octadeca-9,12-dienyl)amino)propan-1-ol] | 124.3 | 88.3 |  |
| CCCCC/C=C\C/C=C\CCCCCCCCN(CCCCCCCC/C=C\C/C=C\CCCCC)C(=O)OCCCN1CCCCC1 [Compound A-7, 3-(Piperidin-1-yl)propyl di((9Z,12Z)-octadeca-9,12-dienyl)carbamate] |  | 94.6 | 123.3 |
| CCCCC/C=C\C/C=C\CCCCCCCCNCCCCCCCC/C=C\C/C=C\CCCCC [Compound B-1, Di((9Z,12Z)-octadeca-9,12-dienyl)amine] | 160.6 |  |  |
| CCCCC/C=C\C/C=C\CCCCCCCCN(CCCCCCCC/C=C\C/C=C\CCCCC)CC(O)CO (stereo not shown) [Compound XI-7, 3-(Di((9Z,12Z)-octadeca-9,12-dienyl)amino)propane-1,2-diol, reference compound] | 142.8 |  |  |
| CCCCC/C=C\C/C=C\CCCCCCCCOCCN(CCCCCCCC/C=C\C/C=C\CCCCC)C(=O)OCCCN1CCCCCC1 [Compound A-31, 3-(Azepan-1-yl)propyl ((9Z,12Z)-octadeca-9,12-dienyl) (2-((9Z,12Z)-octadeca-9,12-dienyloxy)ethyl)carbamate] | 139.1 | 102.2 |  |
| CCCCC/C=C\C/C=C\CCCCCCCCCCN(CCCCCCCCCC/C=C\C/C=C\CCCCC)C(=O)OCCC1CCCN1C (stereo not shown) [Compound A-19, 2-(1-Methylpyrrolidin-2-yl)ethyl di((11Z,14Z)-icosa-11,14-dienyl)carbamate] | 140.0 | 91.4 |  |
| CCCCC/C=C\C/C=C\CCCCCCCCN(CCCCCCCC/C=C\C/C=C\CCCCC)C(=O)OCCCN1CCCCCCC1 [Compound A-28] | 132.0 | 111.3 |  |
| CCCCCCCC/C=C\CCCCCCCCN(CCCCCCCC/C=C\CCCCCCCC)C(=O)OCCC1CCCN1C (stereo not shown) [Compound A-17, 2-(1-Methylpyrrolidin-2-yl)ethyl di((Z)-octadec-9-enyl)carbamate] | 129.1 | 101.4 |  |
| CCCCC/C=C\C/C=C\CCCCCCCCO[C@@H]1CN(CCCO)C[C@H]1OCCCCCCCC/C=C\C/C=C\CCCCC [Compound XI-8, 3-((3R,4R)-3,4-Bis((9Z,12Z)-octadeca-9,12-dienyloxy)pyrrolidin-1-yl)propan-1-ol, reference compound] | 128.0 |  |  |
| CCCCC/C=C\C/C=C\CCCCCCCCN(CCOCCCCCCCC/C=C\CCCCCCCC)C(=O)OCCC1CCCN1C (stereo not shown) [Compound A-34, 2-(1-Methylpyrrolidin-2-yl)ethyl (2-((Z)-octadec-9-enyloxy)ethyl)((9Z,12Z)-octadeca-9,12-dienyl)carbamate] | 140.2 | 92.6 |  |
| CCCCCCCC/C=C\CCCCCCCCN(CCCO)CCCCCCCC/C=C\CCCCCCCC [Compound C-2, 3-(Di((Z)-octadec-9-enyl)amino)propan-1-ol] | 125.4 | 91.9 |  |
| CCCCC/C=C\C/C=C\CCCCCCCCN(CCCCCCCC/C=C\C/C=C\CCCCC)C(=O)OCCCN(C)C [Compound A-1, 3-(Dimethylamino) propyl di((9Z,12Z)-octadeca-9,12-dienyl)carbamate] |  | 95.9 | 113.0 |
| CCCCC/C=C\C/C=C\CCCCCCCCN(CCOCCCCCCCC/C=C\CCCCCC)C(=O)OCCCN(C)C [Compound A-36, 3-(Dimethylamino)propyl (2-((Z)-hexadec-9-enyloxy)ethyl)((9Z,12Z)-octadeca-9,12-dienyl)carbamate] | 126.5 | 127.2 |  |
| CCCCC/C=C\C/C=C\CCCCCCCCN(CCCCCCCCCC)C(=O)OCCCN(C)C [Compound A-10, 3-(Dimethylamino)propyl decyl((9Z,12Z)-octadeca-9,12-dienyl)carbamate] | 148.7 | 123.1 | 156.2 |
| CCCCC/C=C\C/C=C\CCCCCCCCN(CCO)CCCCCCCC/C=C\C/C=C\CCCCC [Compound C-4, 2-(Di((9Z,12Z)-octadeca-9,12-dienyl)amino)ethanol] | 137.3 | 98.8 |  |
| CCCCC/C=C\C/C=C\CCCCCCCCN(CCCCCCCC/C=C\C/C=C\CCCCC)C(=O)OCCCCN(C)C [Compound A-13, 4-(Dimethylamino)butyl di((9Z,12Z)-octadeca-9,12-dienyl)carbamate] | 135.0 | 103.1 |  |
| CCCCC/C=C\C/C=C\CCCCCCCCN(CCCCCCCC/C=C\C/C=C\CCCCC)C(=O)OCC1CCCCN1C (stereo not shown) [Compound A-16, (1-Methylpiperidin-2-yl)methyl di((9Z,12Z)-octadeca-9,12-dien-1-yl)carbamate] | 133.4 | 105.5 |  |
| CCCCC/C=C\C/C=C\CCCCCCCCN(CCCCCCCC/C=C\C/C=C\CCCCC)C(=O)OCCC1CCCN1C (stereo not shown) [Compound A-6, 2-(1-Methylpyrrolidin-2-yl)ethyl di((9Z,12Z)-octadeca-9,12-dienyl)carbamate] |  | 93.6 |  |
| CCCCC/C=C\C/C=C\CCCCCCCCN(CCCCCCCCCCCC)C(=O)OCCCN(C)C [Compound A-9, 3-(Dimethylamino)propyl dodecyl((9Z,12Z)-octadeca-9,12-dienyl) carbamate] | 116.4 |  |  |
